Test results taken from article PMC9863987, “Identification of Aryl Polyamines Derivatives as Anti-Trypanosoma cruzi Agents Targeting Iron Superoxide Dismutase” (Pharmaceutics, 2022).

Experiments:
[1] = system: T. cruzi Tulahuen strain trypomastigotes; experiment: Screening against bloodstream trypomastigotes, Tulahuen strain (resazurin); type: cell-based, Trypanosoma cruzi; conditions: Trypanosoma cruzi, TULAHUEN; trypomastigotes; 24 h + 4 h resazurin; mean of three ± SD
[2] = type: in vivo, BALB/c mice; conditions: oral 20 mg/Kg/day for 5 days; acute and chronic infections
Description: (§1) All animal work (Scheme 1) and maintenance was performed under RD53/2013 and approved by the Ethics Committee on Animal Experimentation (CEEA) of the University of Granada, Spain. Female BALB/c mice (aged 10–12 weeks and 20–22 g) were used in the subsequent in vivo assays.
(§2) Infection was carried out by intraperitoneal inoculation of 5 × 10^5 BTs of T. cruzi Arequipa strain per mouse in 0.2 mL PBS [26]. The infection was monitored and on the 10th day post-infection (dpi), when BTs were visible in the bloodstream, the infection was confirmed.
(§3) Mice were divided into four groups (n = 3 per group): 0, negative control group (uninfected and untreated mice); I, positive control group (infected and untreated mice); II, BZN group (mice infected and treated with BZN); III, 15 group (mice infected and treated with 15).
(§4) The treatment for mice treated in the acute and chronic CD began when the infection was confirmed (10th dpi) and was stablished that the animals had entered the chronic CD (75th dpi), respectively (Scheme 1). Compound 15 and BZN were orally administered for 5 consecutive days at a dose of 20 mg·Kg^−1·day^−1.

[3] = system: T. cruzi Arequipa strain amastigotes; experiment: Screening against intracellular amastigotes in Vero cells, Arequipa strain (Giemsa counting); type: cell-based, Trypanosoma cruzi
Description: (§5) TINF/CH/1956/Tulahuen, DTU VI [26]—were grown at 28 °C in Gibco® RPMI 1640 Medium supplemented as previously reported, and used for in vitro screening. Trypanocidal activity against amastigotes was tested as previously reported. In brief, bloodstream trypomastigotes (BTs), obtained by cardiac puncture from infected BALB/c mice, were used to infect 1 × 10^4 Vero cells·well^−1 in 24-well plates with rounded coverslips at a multiplicity of infection (MOI) ratio of 10:1. After 24 h of infection, non-internalized trypomastigotes were washed and the infected cells were treated by adding the compounds in serial dilutions from 50 to 0.5 µM in […] for 72 h. BZN and untreated growth controls were also included in triplicate. Later, the number of amastigotes and infected cells were determined in Giemsa stained preparations by analysing 500 host cells randomly distributed in microscopic fields. The trypanocidal activity was expressed as the IC50 using GraphPad Prism 6 software (version 6.07).

[4] = system: T. cruzi Arequipa strain trypomastigotes; experiment: Screening against bloodstream trypomastigotes, Arequipa strain (resazurin); type: cell-based, Trypanosoma cruzi; conditions: Trypanosoma cruzi; trypomastigotes; 24 h + 4 h resazurin; mean of three ± SD
[5] = system: T. cruzi SN3 strain amastigotes; experiment: Screening against intracellular amastigotes in Vero cells, SN3 strain (Giemsa counting); type: cell-based, Trypanosoma cruzi; conditions: Trypanosoma cruzi; amastigotes in Vero cells; 72 h; mean of three ± SD
Description: as §5

[6] = system: T. cruzi Tulahuen strain amastigotes; experiment: Screening against intracellular amastigotes in Vero cells, Tulahuen strain (Giemsa counting); type: cell-based, Trypanosoma cruzi; conditions: Trypanosoma cruzi, TULAHUEN; amastigotes in Vero cells; 72 h; mean of three ± SD
Description: as §5

[7] = system: T. cruzi Arequipa strain; experiment: Nested amastigotes detection by PCR in nine target organs/tissues of infected BALB/c mice; type: in vivo, Trypanosoma cruzi; conditions: oral 20 mg/Kg/day for 5 days
Description: as §2, §3, §4
After CP-induced immunosuppression, the mice were euthanised using CO2 by exsanguination via cardiac puncture, and blood was collected. Then, 9 target organs/tissues were harvested: adipose, bone marrow, brain, oesophagus, heart, lung, muscle, spleen, and stomach. These organs/tissues were perfused with pre-warmed PBS to avoid contamination with BTs, and stored at −80 °C. In addition, spleens were weighed to assess splenomegaly.
DNA extraction of the target organs/tissues was performed using Wizard® Genomic DNA Purification Kit. DNA was subjected to amplification by PCR based on the sequence of the T. cruzi splice leader (SL) intergenic region using two published primers (TC and TC1) that allow the amplification of a 300 base pairs fragment in different biological samples. […]

[8] = system: epimastigotes of T. cruzi Arequipa strain; experiment: Mitochondrial membrane potential by flow cytometry (rhodamine 123); type: cell-based, Trypanosoma cruzi; conditions: compounds at IC25 concentrations, 72 h; KCN 10 mM, 40 min; mean of three ± SD
[9] = system: T. cruzi Tulahuen strain epimastigotes; experiment: Screening against extracellular epimastigotes, Tulahuen strain (resazurin); type: cell-based, Trypanosoma cruzi; conditions: Trypanosoma cruzi, TULAHUEN; epimastigotes; 48 h treatment + 24 h resazurin; mean of three ± SD; read-out: Activity IC50 T. cruzi Tulahuen Strain E
Description: Three different T. cruzi […] strains—MHOM/Pe/2011/Arequipa, discrete typing unit (DTU) V [26]; IRHOD/CO/2008/SN3, DTU I [27]; TINF/CH/1956/Tulahuen, DTU VI [26]—were grown at 28 °C in Gibco® RPMI 1640 Medium supplemented as previously reported, and used for in vitro screening.
Trypanocidal activity against epimastigotes was tested as previously reported. In brief, 5 × 10^5 mL^−1 epimastigotes culture medium were treated by adding the compounds in serial dilutions from 100 to 0.2 µM in 96-well plates (200 µL·well^−1) for 48 h. BZN and untreated growth control were also included in triplicate. Later, 20 μL of resazurin sodium salt (Sigma-Aldrich, St. Louis, MO, USA) was added, and the plates were incubated for another 24 h. Finally, the absorbance of the wells was measured at 570/600 nm and related to the control. The trypanocidal activity was expressed as the IC50 (inhibitory concentration 50) value using GraphPad Prism 6 software.

[10] = system: T. cruzi Arequipa strain; experiment: Monitoring of acute parasitaemia by counting in infected BALB/c mice; type: in vivo, Trypanosoma cruzi; conditions: acute infection
Description: as §1, §2, §3, §4
[…]. The fresh blood microscopic examination was performed from the 7th day until the day when parasitaemia was not detected (Scheme 1).

[11] = Clinical analysis of heart, kidney and liver markers in serum of treated mice; type: in vivo, BALB/c mice; conditions: n = 3
Description: as §2, §3, §4
Blood samples were collected in several dpi (Scheme 1) and processed according the method previously reported to obtain serum. Serum samples were then aliquoted to ELISA test and clinical analysis.
Heart, kidney and liver markers were measured from blood in several dpi (Scheme 1) with Cromakit® as previously reported. Mean and standard deviations were calculated using the levels measured for different populations of sera (n = 15, n = 3), and the confidence interval were also calculated based on a confidence level of 95% (100 × (1 − α) = 100 × (1 − 0.05)).

[12] = system: T. cruzi Arequipa strain; experiment: Infection reactivation by cyclophosphamide immunosuppression in infected BALB/c mice; type: in vivo, Trypanosoma cruzi; conditions: oral 20 mg/Kg/day for 5 days, related to control group
[13] = treatment in the acute infection
[14] = treatment in acute phase, 16th dpi (2 days after treatment)
[15] = treatment in acute phase, necropsy day
[16] = treatment in chronic phase, 81th dpi (2 days after treatment)
[17] = treatment in chronic phase, necropsy day

O=C(Cn1ccnc1[N+](=O)[O-])NCc1ccccc1 [BZN, benznidazole, reference compound]
IC50 [1]: 15.1 ± 1.3 µM
death or body mass loss of treated mice [2]: none of the mice died or lost more than 10% body mass
number of amastigotes per Vero cell ([3]; 50 μM, 72 h of exposure): practically zero
IC50 ([3]; Trypanosoma cruzi, amastigotes in Vero cells, 72 h, mean of three ± SD): 8.3 ± 0.7 µM
IC50 [4]: 12.4 ± 1.1 µM
IC50 [5]: 16.6 ± 1.4 µM
IC50 [6]: 10 ± 0.8 µM
clearance of nested parasites in target organs/tissues (parasite-free organs/tissues, PCR) [7, 13]: 33%
clearance of nested parasites in target organs/tissues (parasite-free organs/tissues, PCR) ([7]; treatment in the chronic infection): 56%
Inhibition on mitochondrial membrane potential with respect to untreated epimastigotes [8]: 35.4%
IC50 [9]: 19.7 ± 1.7 µM
parasitaemia reduction on the day of maximum parasitaemia ([10]; oral 20 mg/Kg/day for 5 days from 10th dpi, vs untreated control): ~ 65%
parasitaemia undetectable, days before control mice ([10]; oral 20 mg/Kg/day for 5 days, control detectable up to 50 dpi): 3 days
ALP, variation over the range [11, 14]: ++ (20-30% increase/decrease over the range)
ALT/GPT, variation over the range [11, 14]: ++++ (˃ 40% increase/decrease over the range)
AST/GOT, variation over the range [11, 14]: ++++ (˃ 40% increase/decrease over the range)
CK-MB, variation over the range [11, 14]: = (variation ≤ 10%)
LDH, variation over the range [11, 14]: = (variation ≤ 10%)
Total bilirubin, variation over the range [11, 14]: ++ (20-30% increase/decrease over the range)
Urea, variation over the range [11, 14]: --- (30-40% increase/decrease over the range)
Uric acid, variation over the range [11, 14]: ---- (˃ 40% increase/decrease over the range)
ALP, variation over the range [11, 15]: = (variation ≤ 10%)
ALT/GPT, variation over the range [11, 15]: = (variation ≤ 10%)
AST/GOT, variation over the range [11, 15]: ++++ (˃ 40% increase/decrease over the range)
CK-MB, variation over the range [11, 15]: = (variation ≤ 10%)
LDH, variation over the range [11, 15]: = (variation ≤ 10%)
Total bilirubin, variation over the range [11, 15]: + (10-20% increase/decrease over the range)
Urea, variation over the range [11, 15]: --- (30-40% increase/decrease over the range)
Uric acid, variation over the range [11, 15]: = (variation ≤ 10%)
ALP, variation over the range [11, 16]: ++++ (˃ 40% increase/decrease over the range)
ALT/GPT, variation over the range [11, 16]: ++ (20-30% increase/decrease over the range)
AST/GOT, variation over the range [11, 16]: ++ (20-30% increase/decrease over the range)
CK-MB, variation over the range [11, 16]: -- (20-30% increase/decrease over the range)
LDH, variation over the range [11, 16]: --- (30-40% increase/decrease over the range)
Total bilirubin, variation over the range [11, 16]: +++ (30-40% increase/decrease over the range)
Urea, variation over the range [11, 16]: --- (30-40% increase/decrease over the range)
Uric acid, variation over the range [11, 16]: ---- (˃ 40% increase/decrease over the range)
ALP, variation over the range [11, 17]: ++ (20-30% increase/decrease over the range)
ALT/GPT, variation over the range [11, 17]: = (variation ≤ 10%)
AST/GOT, variation over the range [11, 17]: + (10-20% increase/decrease over the range)
CK-MB, variation over the range [11, 17]: = (variation ≤ 10%)
LDH, variation over the range [11, 17]: -- (20-30% increase/decrease over the range)
Total bilirubin, variation over the range [11, 17]: ++ (20-30% increase/decrease over the range)
Urea, variation over the range [11, 17]: --- (30-40% increase/decrease over the range)
Uric acid, variation over the range [11, 17]: -- (20-30% increase/decrease over the range)
reactivation of parasitaemia after immunosuppression [12, 13]: 75%
reactivation of parasitaemia after immunosuppression ([12]; treatment in the chronic infection (from 75th dpi)): 51%
